Data: ChEMBL document CHEMBL3885881, “DrugMatrix”

Species: Rattus norvegicus
Assay: DrugMatrix - Regimen: Daily Repeat
Type: toxicity, organism-based, Sprague-Dawley
Set-up: regimen Daily Repeat, gender Male, age 6-8 weeks
Settings: in vivo, sc, route subcutaneous, […]; for ABSOLUTE BASOPHIL / ABSOLUTE EOSINOPHIL / ABSOLUTE LYMPHOCYTE / ABSOLUTE MONOCYTE / ABSOLUTE SEGMENTED NEUTROPHIL / BASOPHIL / EOSINOPHIL / ERYTHROCYTE COUNT / HEMATOCRIT / HEMOGLOBIN / LEUKOCYTE COUNT / LYMPHOCYTE / MEAN CORPUSCULAR HEMOGLOBIN / MEAN CORPUSCULAR VOLUME / MONOCYTE / NEUTROPHIL / NUCLEATED RED BLOOD CELLS / PLATELET COUNT: tissue Blood; for ALANINE AMINOTRANSFERASE / ALBUMIN / ALKALINE PHOSPHATASE / ASPARTATE AMINOTRANSFERASE / BLOOD UREA NITROGEN / CARBON DIOXIDE / CHLORIDE / CHOLESTEROL / CREATINE PHOSPHOKINASE / CREATININE / GLUCOSE / LACTATE DEHYDROGENASE / LIPASE / PHOSPHORUS / POTASSIUM / SODIUM / TOTAL BILIRUBIN / TOTAL PROTEIN / URIC ACID: tissue Plasma
[1] = 50 mg/kg, 120 h, dose level Low, time 5 day
[2] = 450 mg/kg, 72 h, dose level M2, time 3 day
[3] = 450 mg/kg, 120 h, dose level M2, time 5 day

CCCCCCCCc1ccc(O)cc1 [4-OCTYLPHENOL]
ABSOLUTE BASOPHIL [1]: 0 CELLS/uL
ABSOLUTE EOSINOPHIL [1]: 65.33 CELLS/uL
ABSOLUTE LYMPHOCYTE [1]: 9619.33 CELLS/uL
ABSOLUTE MONOCYTE [1]: 226 CELLS/uL
ABSOLUTE SEGMENTED NEUTROPHIL [1]: 589.33 CELLS/uL
BASOPHIL [1]: 0%
EOSINOPHIL [1]: 0.67%
ERYTHROCYTE COUNT [1]: 5.5 x10E6/uL
HEMATOCRIT [1]: 35.3%
HEMOGLOBIN [1]: 13.8 G/DL
LEUKOCYTE COUNT [1]: 10.5 x10E3/uL
LYMPHOCYTE [1]: 91.33%
MEAN CORPUSCULAR HEMOGLOBIN [1]: 25.17 pg
MEAN CORPUSCULAR VOLUME [1]: 64.33 fL
MONOCYTE [1]: 2.33%
NEUTROPHIL [1]: 5.67%
NUCLEATED RED BLOOD CELLS [1]: 0 /100WBC
PLATELET COUNT [1]: 1190 x10E3/uL
ALANINE AMINOTRANSFERASE [1]: 45.33 u/L
ALBUMIN [1]: 3.2 G/DL
ALKALINE PHOSPHATASE [1]: 276.67 u/L
ASPARTATE AMINOTRANSFERASE [1]: 80 u/L
BLOOD UREA NITROGEN [1]: 15 mg/dL
CARBON DIOXIDE [1]: 29.67 mmol/L
CHLORIDE [1]: 100 MEQ/L
CHOLESTEROL [1]: 78 mg/dL
CREATINE PHOSPHOKINASE [1]: 339.67 u/L
CREATININE [1]: 0.16 mg/dL
GLUCOSE [1]: 161.33 mg/dL
LACTATE DEHYDROGENASE [1]: 367 u/L
LIPASE [1]: 9 u/L
PHOSPHORUS [1]: 12.2 mg/dL
POTASSIUM [1]: 6.42 MEQ/L
SODIUM [1]: 141.23 MEQ/L
TOTAL BILIRUBIN [1]: 0.1 mg/dL
TOTAL PROTEIN [1]: 5.57 G/DL
URIC ACID [1]: 1.5 mg/dL
ABSOLUTE BASOPHIL [2]: 0 CELLS/uL
ABSOLUTE EOSINOPHIL [2]: 58 CELLS/uL
ABSOLUTE LYMPHOCYTE [2]: 8257.67 CELLS/uL
ABSOLUTE MONOCYTE [2]: 28.33 CELLS/uL
ABSOLUTE SEGMENTED NEUTROPHIL [2]: 256 CELLS/uL
BASOPHIL [2]: 0%
EOSINOPHIL [2]: 0.67%
ERYTHROCYTE COUNT [2]: 5.23 x10E6/uL
HEMATOCRIT [2]: 32.2%
HEMOGLOBIN [2]: 12.73 G/DL
LEUKOCYTE COUNT [2]: 8.6 x10E3/uL
LYMPHOCYTE [2]: 96%
MEAN CORPUSCULAR HEMOGLOBIN [2]: 24.37 pg
MEAN CORPUSCULAR VOLUME [2]: 61.63 fL
MONOCYTE [2]: 0.33%
NEUTROPHIL [2]: 3%
NUCLEATED RED BLOOD CELLS [2]: 0 /100WBC
PLATELET COUNT [2]: 1100 x10E3/uL
ALANINE AMINOTRANSFERASE [2]: 61 u/L
ALBUMIN [2]: 3.07 G/DL
ALKALINE PHOSPHATASE [2]: 305.67 u/L
ASPARTATE AMINOTRANSFERASE [2]: 93.67 u/L
BLOOD UREA NITROGEN [2]: 9.67 mg/dL
CARBON DIOXIDE [2]: 24 mmol/L
CHLORIDE [2]: 94 MEQ/L
CHOLESTEROL [2]: 75.33 mg/dL
CREATINE PHOSPHOKINASE [2]: 340.33 u/L
CREATININE [2]: 0.3 mg/dL
GLUCOSE [2]: 117.67 mg/dL
LACTATE DEHYDROGENASE [2]: 409.67 u/L
LIPASE [2]: 9 u/L
PHOSPHORUS [2]: 10.37 mg/dL
POTASSIUM [2]: 5.55 MEQ/L
SODIUM [2]: 137.75 MEQ/L
TOTAL BILIRUBIN [2]: 0.1 mg/dL
TOTAL PROTEIN [2]: 5.1 G/DL
URIC ACID [2]: 0.63 mg/dL
ABSOLUTE BASOPHIL [3]: 0 CELLS/uL
ABSOLUTE EOSINOPHIL [3]: 224.33 CELLS/uL
ABSOLUTE LYMPHOCYTE [3]: 13520.67 CELLS/uL
ABSOLUTE MONOCYTE [3]: 303.33 CELLS/uL
ABSOLUTE SEGMENTED NEUTROPHIL [3]: 3318.33 CELLS/uL
BASOPHIL [3]: 0%
EOSINOPHIL [3]: 1.33%
ERYTHROCYTE COUNT [3]: 5.94 x10E6/uL
HEMATOCRIT [3]: 36.27%
HEMOGLOBIN [3]: 14.17 G/DL
LEUKOCYTE COUNT [3]: 17.37 x10E3/uL
LYMPHOCYTE [3]: 78%
MEAN CORPUSCULAR HEMOGLOBIN [3]: 23.97 pg
MEAN CORPUSCULAR VOLUME [3]: 61.27 fL
MONOCYTE [3]: 1.67%
NEUTROPHIL [3]: 19%
NUCLEATED RED BLOOD CELLS [3]: 0 /100WBC
PLATELET COUNT [3]: 1864.67 x10E3/uL
ALANINE AMINOTRANSFERASE [3]: 43.33 u/L
ALBUMIN [3]: 3.17 G/DL
ALKALINE PHOSPHATASE [3]: 326.67 u/L
ASPARTATE AMINOTRANSFERASE [3]: 82.67 u/L
BLOOD UREA NITROGEN [3]: 14 mg/dL
CARBON DIOXIDE [3]: 25.33 mmol/L
CHLORIDE [3]: 102.67 MEQ/L
CHOLESTEROL [3]: 71.67 mg/dL
CREATINE PHOSPHOKINASE [3]: 343 u/L
CREATININE [3]: 0.19 mg/dL
GLUCOSE [3]: 162.33 mg/dL
LACTATE DEHYDROGENASE [3]: 384.67 u/L
LIPASE [3]: 9.67 u/L
PHOSPHORUS [3]: 12.93 mg/dL
POTASSIUM [3]: 7.17 MEQ/L
SODIUM [3]: 141.23 MEQ/L
TOTAL BILIRUBIN [3]: 0.13 mg/dL
TOTAL PROTEIN [3]: 5.4 G/DL
URIC ACID [3]: 2.67 mg/dL
